Laboratory results from ChEMBL document CHEMBL5214926, “Recent contribution of medicinally active 2-aminothiophenes: A privileged scaffold for drug discovery” (Eur J Med Chem, 2022).
Converted amounts (≈) assume the structure as drawn. “And” between values parts separate entries of the source, which are not always exact repeats. Equal entries are not always repeated.

Legend:
JAR = experiment: Cytotoxicity against human JAR cells assessed as cell growth inhibition at 10 uM relative to control; assay type: functional
Perkinsus sp. = experiment: Antiprotozoal activity against Perkinsus sp. assessed as reduction in hypnospore viability at 500 uM measured after 48 hrs by microscopic analysis relative to control; assay type: functional
Candida tropicalis = experiment: Antifungal activity against Candida tropicalis URM 4262 assessed as fungal growth inhibition around drug-chitosan film at 1.28 mg/ml; assay type: functional; conditions: read-out: DIZ
[1] = Inhibition of CaCC current potentiation in rat cerebellar Purkinje neurons by electrophysiological method
[2] = Inhibition of CaCC (unknown origin) current potentiation; design: species or system Homo sapiens
Heyndrickxia coagulans = experiment: Antibacterial activity against Bacillus coagulans assessed as bacterial growth inhibition; assay type: functional
Enterococcus faecalis = experiment: Antibacterial activity against Enterococcus faecalis assessed as bacterial growth inhibition; assay type: functional
Escherichia coli [3] = experiment: Antibacterial activity against Escherichia coli assessed as bacterial growth inhibition; assay type: functional
TGF-beta receptor type-1 = target: T1, TGF-beta receptor type-1 (Homo sapiens, UniProt P36897); experiment: Inhibition of human TGF-beta-R1 using TMB substrate incubated for 2.5 hrs by microplate reader analysis
T1 sequence (P36897 whole entry): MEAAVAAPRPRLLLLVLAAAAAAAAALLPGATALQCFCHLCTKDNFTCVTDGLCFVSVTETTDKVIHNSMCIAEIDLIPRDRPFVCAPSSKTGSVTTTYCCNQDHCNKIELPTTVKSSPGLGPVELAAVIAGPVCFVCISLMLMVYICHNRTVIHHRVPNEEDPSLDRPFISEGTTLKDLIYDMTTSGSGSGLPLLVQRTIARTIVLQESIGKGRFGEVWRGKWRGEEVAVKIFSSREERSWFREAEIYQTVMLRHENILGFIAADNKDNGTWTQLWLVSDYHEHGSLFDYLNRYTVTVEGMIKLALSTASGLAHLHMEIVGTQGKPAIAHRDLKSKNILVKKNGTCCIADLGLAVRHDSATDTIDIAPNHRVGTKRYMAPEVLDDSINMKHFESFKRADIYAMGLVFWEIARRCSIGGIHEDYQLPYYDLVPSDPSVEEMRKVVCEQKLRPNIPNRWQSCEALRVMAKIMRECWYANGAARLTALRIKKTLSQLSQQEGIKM

[4] = Cytotoxicity against human WI-38 cells assessed as cell growth inhibition incubated for 2 days by MTT assay; assay type: toxicity, cell-based
PC-3 = experiment: Cytotoxicity against human PC-3 cells assessed as cell growth inhibition incubated for 2 days by MTT assay; assay type: functional, cell-based; conditions: PC-3, 48 h
HepG2 = experiment: Cytotoxicity against human HepG2 cells assessed as cell growth inhibition incubated for 2 days by MTT assay; assay type: functional, cell-based; conditions: HepG2, 48 h
MCF7 = experiment: Cytotoxicity against human MCF7 cells assessed as cell growth inhibition incubated for 2 days by MTT assay; assay type: functional, cell-based; conditions: MCF7, 48 h
Epidermophyton floccosum [5] = experiment: Antifungal activity against Epidermophyton floccosum 6999 assessed as fungal growth inhibition by spectrophotometry; assay type: functional
Epidermophyton floccosum [6] = experiment: Antifungal activity against Epidermophyton floccosum 6754 assessed as fungal growth inhibition by spectrophotometry; assay type: functional
Trichophyton tonsurans [7] = experiment: Antifungal activity against Trichophyton tonsurans 700 assessed as fungal growth inhibition by spectrophotometry; assay type: functional
Trichophyton tonsurans [8] = experiment: Antifungal activity against Trichophyton tonsurans 2822 assessed as fungal growth inhibition by spectrophotometry; assay type: functional
[9] = system: Trichophyton mentagrophytes; experiment: Antifungal activity against Trichophyton mentagrophytes 5432 assessed as fungal growth inhibition by spectrophotometry; assay type: functional
Epidermophyton floccosum [10] = experiment: Antifungal activity against Epidermophyton floccosum assessed as fungal growth inhibition incubated for 7 days by spectrophotometry; assay type: functional; conditions: 168 h, time 7 day
Candida parapsilosis = experiment: Antifungal activity against Candida parapsilosis ATCC 22019 assessed as fungal growth inhibition by spectrophotometry; assay type: functional; conditions: Lodderomyces parapsilosis
[11] = system: Trichophyton mentagrophytes; experiment: Antifungal activity against Trichophyton mentagrophytes 5431 assessed as fungal growth inhibition by spectrophotometry; assay type: functional
Trichophyton rubrum = experiment: Antifungal activity against Trichophyton rubrum 6753 assessed as fungal growth inhibition by spectrophotometry; assay type: functional
Leishmania amazonensis = experiment: Anti-promastigote activity against Leishmania amazonensis (IFLA/BR/67/PH8) assessed as promastigote growth inhibition incubated for 72 hrs by microscopic analysis; assay type: functional, organism-based; conditions: Leishmania amazonensis, IFLA/BR/67/PH8, 72 h
DNA = experiment: Binding affinity to parasitic DNA assessed as intrinsic binding constant by UV-visible absorption spectrophotometry; assay type: nucleic-acid assay
Staphylococcus aureus [12] = experiment: Antibacterial activity against Staphylococcus aureus NCIM 2010 assessed as bacterial growth inhibition incubated for 8 hrs; assay type: functional, organism-based; conditions: NCIM 2010, 8 h
[13] = system: Mycobacterium tuberculosis; experiment: Antimycobacterial activity against Mycobacterium tuberculosis H37Ra assessed as bacterial growth inhibition incubated for 8 to 12 days by XTT reduction menadione assay; assay type: functional; conditions: time 8-12 day
Staphylococcus aureus [14] = experiment: Antibacterial activity against Staphylococcus aureus NCIM 2010 assessed as bacterial growth inhibition incubated for 8 hrs by absorbance based assay; assay type: functional
Bacillus subtilis [15] = experiment: Antibacterial activity against Bacillus subtilis NCIM 2079 assessed as bacterial growth inhibition incubated for 8 hrs by absorbance based assay; assay type: functional
Escherichia coli [16] = experiment: Antibacterial activity against Escherichia coli NCIM 2688 assessed as bacterial growth inhibition incubated for 8 hrs by absorbance based assay; assay type: functional
Pseudomonas aeruginosa = experiment: Antibacterial activity against Pseudomonas aeruginosa NCIM 2036 assessed as bacterial growth inhibition incubated for 8 hrs by absorbance based assay; assay type: functional
[17] = system: Mycobacterium tuberculosis; experiment: Antimycobacterial activity against Mycobacterium tuberculosis H37Ra incubated for 8 to 12 days by XTT reduction menadione assay; assay type: functional; conditions: time 8-12 day
Staphylococcus aureus [18] = experiment: Antibacterial activity against Staphylococcus aureus NCIM 2010 assessed as reduction in bacterial growth incubated for 8 hrs by absorbance based assay; assay type: functional, organism-based; conditions: NCIM 2010, 8 h
Bacillus subtilis [19] = experiment: Antibacterial activity against Bacillus subtilis NCIM 2079 assessed as reduction in bacterial growth incubated for 8 hrs by absorbance based assay; assay type: functional, organism-based; conditions: NCIM 2079, 8 h
K562 = experiment: Cytotoxicity against human K562 cells assessed as cell growth inhibition; assay type: functional, cell-based
Staphylococcus aureus [20] = experiment: Inhibition of EtBr efflux in Staphylococcus aureus SA-1 assessed as reduction in fluorescence intensity at 50 uM measured after 30 mins by spectrophotometry relative to control; assay type: functional; design: scale not given: the % may be the effect or the level left
Homo sapiens [21] = species: Homo sapiens; experiment: Induction of CaCC (unknown origin) current potentiation at 10 uM relative to control
Homo sapiens [22] = species: Homo sapiens; experiment: Inhibition of CaCC (unknown origin) current potentiation at 10 uM relative to control

CCOC(=O)C1=C(Nc2ccccc2)S/C(=C\c2ccc(F)c(C#N)c2)C1=O
inhibition at 10 µM (JAR): 9.9%

N#Cc1c(N)sc2c1CCCC2
Activity (Perkinsus sp.): 38% | zone of inhibition at 1280 µg/mL (Candida tropicalis): 1.5 mm

COC(=O)c1c(NC(=O)Cn2cc(CNC34CC5CC(CC(C5)C3)C4)nn2)sc2c1CCCC2
IC50 [1]: 1600 nM | IC50 [2]: 1600 nM

O=C(N[C@H](CO)[C@H](O)c1ccc([N+](=O)[O-])cc1)C(Cl)Cl [CHLORAMPHENICOL]
MIC (Heyndrickxia coagulans): 0.41 µg/mL (≈ 1.27 µM) | MIC (Enterococcus faecalis): 0.05 µg/mL (≈ 0.155 µM) | MIC (Escherichia coli [3]): 0.05 µg/mL (≈ 0.155 µM)

COc1ccc(OC)c(/C=C/C(=O)Nc2sc3c(c2C#N)CCCC3)c1
IC50 (TGF-beta receptor type-1): 87 nM | IC50 at 2 days [4]: 260000 nM | IC50 (PC-3): 2640 nM | IC50 (HepG2): 2850 nM | IC50 (MCF7): 3500 nM

N#Cc1ccsc1/N=C/c1ccccc1
MIC (Epidermophyton floccosum [5]): 16 µg/mL (≈ 75.4 µM) | MIC (Epidermophyton floccosum [6]): 512 µg/mL (≈ 2410 µM) | MIC (Trichophyton tonsurans [7]): 32 µg/mL (≈ 151 µM) | MIC (Trichophyton tonsurans [8]): 32 µg/mL (≈ 151 µM) | MIC [9]: 256 µg/mL (≈ 1210 µM)

N#Cc1ccsc1/N=C/c1ccc(Br)cc1
MIC (Epidermophyton floccosum [10]): 101 µM (≈ 29.4 µg/mL) | MIC (Candida parapsilosis): 128 µg/mL (≈ 440 µM) | MIC (Epidermophyton floccosum [5]): 512 µg/mL (≈ 1760 µM) | MIC (Epidermophyton floccosum [6]): 512 µg/mL (≈ 1760 µM) | MIC (Trichophyton tonsurans [7]): 64 µg/mL (≈ 220 µM) | MIC (Trichophyton tonsurans [8]): 1020 µg/mL (≈ 3520 µM) | MIC [11]: 128 µg/mL (≈ 440 µM) | MIC (Trichophyton rubrum): 32 µg/mL (≈ 110 µM) | MIC [9]: 1020 µg/mL (≈ 3520 µM)

COc1ccc(OC)c(/C=C/C(=O)Nc2sc3c(c2C#N)CCC3)c1
IC50 (TGF-beta receptor type-1): 90 nM and 87 nM | IC50 at 2 days [4]: 185000 nM | IC50 (PC-3): 1350 nM | IC50 (HepG2): 2700 nM | IC50 (MCF7): 3200 nM

N#Cc1ccsc1/N=C/c1ccc([N+](=O)[O-])cc1
MIC (Candida parapsilosis): 1020 µg/mL (≈ 3980 µM) | MIC (Epidermophyton floccosum [5]): 1020 µg/mL (≈ 3980 µM) | MIC (Epidermophyton floccosum [6]): 512 µg/mL (≈ 1990 µM) | MIC (Trichophyton tonsurans [7]): 512 µg/mL (≈ 1990 µM) | MIC (Trichophyton rubrum): 64 µg/mL (≈ 249 µM)

N#Cc1c(NC(=O)/C=C/c2ccc(O)cc2)sc2c1CCC2
IC50 (TGF-beta receptor type-1): 87 nM | IC50 at 2 days [4]: 236000 nM | IC50 (PC-3): 3400 nM | IC50 (HepG2): 3550 nM | IC50 (MCF7): 4920 nM

COc1ccc2nc3cc(Cl)ccc3c(Nc3sc4c(c3C#N)CCC4)c2c1
EC50 (Leishmania amazonensis): 9600 nM | Kb (DNA): 1 10^4/M

COC(=O)c1c(NC(=O)N[C@@H](C(=O)N[C@@H]2C(=O)N3C(C(=O)O)=C(C)CS[C@H]23)c2ccccc2)sc2c1CCCCCC2
EC50 (Staphylococcus aureus [12]): 180 nM | EC5 [13]: 0.782 µM | MIC (Staphylococcus aureus [14]): 0.46 µg/mL (≈ 0.751 µM) | MIC (Bacillus subtilis [15]): 2.35 µg/mL (≈ 3.84 µM) | MIC (Escherichia coli [16]): > 10 µg/mL | MIC (Pseudomonas aeruginosa): > 10 µg/mL | MIC [17]: 0.782 µg/mL (≈ 1.28 µM) | EC50 (Staphylococcus aureus [18]): 180 nM | EC50 (Bacillus subtilis [19]): 260 nM

CCOC(=O)C1=C(Nc2cccc([N+](=O)[O-])c2)S/C(=C\c2ccc[nH]2)C1=O
IC50 (K562): 87200 nM

CCCCCCCC(=O)N1CCc2c(sc(NC(=O)C(F)(F)F)c2C(=O)OCC)C1
Activity (Staphylococcus aureus [20]): 85%

COc1cc(/C=N/c2sccc2C#N)cc(OC)c1OC
MIC (Epidermophyton floccosum [5]): 256 µg/mL (≈ 847 µM) | MIC (Trichophyton tonsurans [7]): 128 µg/mL (≈ 423 µM) | MIC [11]: 256 µg/mL (≈ 847 µM) | MIC (Trichophyton rubrum): 64 µg/mL (≈ 212 µM) | MIC [9]: 128 µg/mL (≈ 423 µM)

CCOC(=O)c1c(NC(=O)C(F)(F)F)sc2c1CCN(C(=O)CCCCCBr)C2
Activity (Staphylococcus aureus [20]): 125%

COc1ccc2nc3cc(Cl)ccc3c(Nc3sc4c(c3C#N)CCCC4)c2c1
EC50 (Leishmania amazonensis): 11000 nM | Kb (DNA): 1 10^4/M

N#Cc1ccsc1/N=C/c1ccccc1[N+](=O)[O-]
MIC (Candida parapsilosis): 128 µg/mL (≈ 498 µM) | MIC (Epidermophyton floccosum [5]): 32 µg/mL (≈ 124 µM)

COC(=O)c1c(NC(=O)Cn2cc(CNC34CC5CC(CC(C5)C3)C4)nn2)sc2c1CCC(C(C)(C)C)C2 (configuration not stated)
Activity (Homo sapiens [21]): 35%

C=CCNC(=S)Nc1sc2c(c1C(=O)OC)CCCC2
inhibition (Homo sapiens [22]): 40%
